Laboratory results reported in PubChem BioAssay AID248 (DTP/NCI, 2004).
Several values for one entry are separate records, joined by “and”; a condition that tells them apart may be missing. Equal entries are not always repeated. Toxic doses and inconclusive results are not listed. Cut-off read from the data, not from the text of the source: active = T/C of 150% or more; inactive = T/C below 125%.

Test system: L1210 leukemia ip in BDF1 mice, survival T/C
Assay: NCI In Vivo Anticancer Drug Screen. Data for tumor model L1210 Leukemia (intraperitoneal) in B6D2F1 (BDF1) mice
Settings: endpoint: mean survival time, higher = longer survival
Method in brief: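 Transplanted-tumor mice were given test agent; controls received vehicle only. Survival readings from the two groups were divided (treated over control).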

[1] = dose: 100.0 mg/kg/injection, schedule: Q04DX002 (ip), vehicle: Klucel (hydroxypropylcellulose) (HPC)
[2] = dose: 200.0 mg/kg/injection, schedule: Q04DX002 (ip), vehicle: Klucel (hydroxypropylcellulose) (HPC)
[3] = dose: 400.0 mg/kg/injection, schedule: Q04DX002 (ip), vehicle: Klucel (hydroxypropylcellulose) (HPC)
[4] = dose: 100.0 mg/kg/injection, schedule: Q01DX009 (ip), vehicle: Klucel (hydroxypropylcellulose) (HPC)
[5] = dose: 100.0 mg/kg/injection, schedule: Q04DX003 (ip), vehicle: Klucel (hydroxypropylcellulose) (HPC)
[6] = dose: 200.0 mg/kg/injection, schedule: Q01DX009 (ip), vehicle: Klucel (hydroxypropylcellulose) (HPC)
[7] = dose: 200.0 mg/kg/injection, schedule: Q04DX003 (ip), vehicle: Klucel (hydroxypropylcellulose) (HPC)
[8] = dose: 400.0 mg/kg/injection, schedule: Q04DX003 (ip), vehicle: Klucel (hydroxypropylcellulose) (HPC)
[9] = dose: 400.0 mg/kg/injection, schedule: Q01DX009 (ip), vehicle: Klucel (hydroxypropylcellulose) (HPC)
[10] = dose: 100.0 mg/kg/injection, schedule: Q01DX009 (ip), vehicle: saline with Tween-80
[11] = dose: 100.0 mg/kg/injection, schedule: Q04DX003 (ip), vehicle: saline with Tween-80
[12] = dose: 200.0 mg/kg/injection, schedule: Q01DX009 (ip), vehicle: saline with Tween-80
[13] = dose: 200.0 mg/kg/injection, schedule: Q04DX003 (ip), vehicle: saline with Tween-80
[14] = dose: 400.0 mg/kg/injection, schedule: Q01DX009 (ip), vehicle: saline with Tween-80
[15] = dose: 400.0 mg/kg/injection, schedule: Q04DX003 (ip), vehicle: saline with Tween-80
[16] = dose: 100.0 mg/kg/injection, schedule: Q01DX001 (ip), vehicle: saline
[17] = dose: 200.0 mg/kg/injection, schedule: Q01DX001 (ip), vehicle: saline
[18] = dose: 400.0 mg/kg/injection, schedule: Q01DX001 (ip), vehicle: saline

Measured: T/C

Cc1ccc(-n2ccnc2)c(N=Cc2ccc(N(CCCl)CCCl)cc2Cl)c1
inactive: [1] 102 % of control | [2] 102 % of control | [3] 102 % of control

CCCCOc1ccc(OCCCCCCCCCC[N+](C)(C)C)cc1
inactive: dose: 1.56 mg/kg/injection, schedule: Q04DX002 (ip), vehicle: saline 103 % of control | dose: 3.13 mg/kg/injection, schedule: Q04DX002 (ip), vehicle: saline 96 % of control | dose: 6.25 mg/kg/injection, schedule: Q04DX002 (ip), vehicle: saline 96 % of control | dose: 12.5 mg/kg/injection, schedule: Q04DX002 (ip), vehicle: saline 97 % of control and 122 % of control

O=C(NC(=S)Nc1cccc(Cl)c1)c1ccccc1
inactive: [4] 106 % of control | [5] 95 % of control | [6] 113 % of control | [7] 92 % of control | [8] 95 % of control

O=C(NCc1cccnc1)c1ccccc1N=Cc1cc(Cl)cc(Cl)c1O
inactive: [4] 98 % of control | [6] 96 % of control | [9] 89 % of control

Cc1c(Cl)cccc1NC(=O)Nc1ccccc1Cl
inactive: [4] 104 % of control | [5] 92 % of control | [6] 103 % of control | [7] 91 % of control | [9] 100 % of control | [8] 92 % of control

CCOc1ccccc1CC(=O)O
inactive: [10] 88 % of control | [11] 92 % of control | [12] 98 % of control | [13] 87 % of control | [14] 101 % of control | [15] 92 % of control

O=C(c1ccc(F)cc1)C(F)(F)F
inactive: dose: 100.0 mg/kg/injection, schedule: Q01DX001 (ip), vehicle: Klucel (hydroxypropylcellulose) (HPC) 95 % of control and 101 % of control | dose: 100.0 mg/kg/injection, schedule: Q04DX003 (ip), vehicle: other 104 % of control | dose: 200.0 mg/kg/injection, schedule: Q01DX001 (ip), vehicle: Klucel (hydroxypropylcellulose) (HPC) 103 % of control | dose: 200.0 mg/kg/injection, schedule: Q04DX003 (ip), vehicle: other 108 % of control | dose: 400.0 mg/kg/injection, schedule: Q01DX001 (ip), vehicle: Klucel (hydroxypropylcellulose) (HPC) 95 % of control and 101 % of control | dose: 400.0 mg/kg/injection, schedule: Q04DX003 (ip), vehicle: other 94 % of control

CC(=O)c1cccc(NC(=O)Oc2cc(C)c(Cl)c(C)c2)c1
inactive: dose: 100.0 mg/kg/injection, schedule: Q01DX001 (ip), vehicle: saline with Tween-80 97 % of control | [10] 94 % of control and 92 % of control | dose: 100.0 mg/kg/injection, schedule: Q04DX002 (ip), vehicle: saline with Tween-80 94 % of control and 101 % of control | [11] 93 % of control | dose: 200.0 mg/kg/injection, schedule: Q01DX001 (ip), vehicle: saline with Tween-80 100 % of control | [12] 88 % of control and 89 % of control | dose: 200.0 mg/kg/injection, schedule: Q04DX002 (ip), vehicle: saline with Tween-80 93 % of control and 89 % of control | [13] 87 % of control | dose: 400.0 mg/kg/injection, schedule: Q01DX001 (ip), vehicle: saline with Tween-80 98 % of control | [14] 91 % of control | dose: 400.0 mg/kg/injection, schedule: Q04DX002 (ip), vehicle: saline with Tween-80 96 % of control and 101 % of control | [15] 90 % of control

CC(C)C1(Cc2ccccc2)C(=O)NC(=S)NC1=O
inactive: dose: 75.0 mg/kg/injection, schedule: Q01DX001 (ip), vehicle: saline 95 % of control | dose: 150.0 mg/kg/injection, schedule: Q01DX001 (ip), vehicle: saline 93 % of control

O=C1OC2CCC3C1C3C2Br (stereo unspecified)
inactive: dose: 25.0 mg/kg/injection, schedule: Q01DX009 (ip), vehicle: acetone 92 % of control

Cn1c(N)c(C=O)c(=O)n(C)c1=O
inactive: dose: 12.5 mg/kg/injection, schedule: Q04DX003 (ip), vehicle: Klucel (hydroxypropylcellulose) (HPC) 95 % of control | dose: 25.0 mg/kg/injection, schedule: Q04DX003 (ip), vehicle: Klucel (hydroxypropylcellulose) (HPC) 105 % of control | dose: 50.0 mg/kg/injection, schedule: Q04DX003 (ip), vehicle: Klucel (hydroxypropylcellulose) (HPC) 96 % of control

Cc1c(Cl)cccc1NC(=O)N1CCN(C)CC1
inactive: [4] 98 % of control and 107 % of control | [1] 106 % of control and 91 % of control | [6] 109 % of control and 92 % of control | [2] 101 % of control and 91 % of control | [3] 110 % of control and 90 % of control

Cn1c(=O)n(OS(=O)(=O)c2ccccc2)c(=O)c2ccccc21
inactive: dose: 100.0 mg/kg/injection, schedule: Q01DX009 (ip), vehicle: other 107 % of control | dose: 200.0 mg/kg/injection, schedule: Q01DX009 (ip), vehicle: other 96 % of control | dose: 400.0 mg/kg/injection, schedule: Q01DX009 (ip), vehicle: other 98 % of control

O=C(O)c1ccc(-c2ccccc2)cc1
inactive: dose: 50.0 mg/kg/injection, schedule: Q01DX Z (ip), vehicle: carboxymethylcellulose (CMC) 92 % of control | [4] 95 % of control | dose: 100.0 mg/kg/injection, schedule: Q01DX Z (ip), vehicle: carboxymethylcellulose (CMC) 93 % of control | [5] 104 % of control | [6] 98 % of control | dose: 200.0 mg/kg/injection, schedule: Q01DX Z (ip), vehicle: carboxymethylcellulose (CMC) 97 % of control | [7] 93 % of control | [8] 104 % of control

COP(=O)(OC)C(=O)c1ccc([N+](=O)[O-])cc1
inactive: [16] 98 % of control | [17] 95 % of control | [18] 103 % of control

O=[N+]([O-])c1cccc(Cl)c1/C=N/Nc1nnc(N/N=C/c2c(Cl)cccc2[N+](=O)[O-])c2ccccc12
inactive: dose: 50.0 mg/kg/injection, schedule: Q01DX001 (ip), vehicle: saline 96 % of control | [16] 96 % of control | [17] 98 % of control | [18] 98 % of control

OC(C1CC2CCC1C2)(C1CC2CCC1C2)C1CC2CCC1C2 (stereo unspecified)
inactive: [10] 92 % of control | [5] 94 % of control | [12] 97 % of control | [7] 96 % of control | [14] 90 % of control | [8] 97 % of control

CC(=O)CCCN1C(=O)c2ccccc2C1=O
inactive: [10] 106 % of control | [11] 101 % of control | [12] 96 % of control | [13] 91 % of control | [14] 93 % of control | [15] 102 % of control

O=C(CBr)Nc1ccc(S(=O)(=O)F)cc1
inactive: dose: 2.34 mg/kg/injection, schedule: Q01DX009 (ip), vehicle: carboxymethylcellulose (CMC) 94 % of control | dose: 4.68 mg/kg/injection, schedule: Q01DX009 (ip), vehicle: carboxymethylcellulose (CMC) 86 % of control | dose: 9.37 mg/kg/injection, schedule: Q01DX009 (ip), vehicle: carboxymethylcellulose (CMC) 86 % of control | dose: 18.75 mg/kg/injection, schedule: Q04DX003 (ip), vehicle: carboxymethylcellulose (CMC) 101 % of control | dose: 75.0 mg/kg/injection, schedule: Q01DX001 (ip), vehicle: carboxymethylcellulose (CMC) 94 % of control
